# Assay results taken from paper PMC8395214, “Promising Anticancer Activity of [Bis(1,8-quinolato)palladium (II)] Alone and in Combination” (International Journal of Molecular Sciences, 2021).
# Like-named read-outs stand apart in the source and are kept apart here.
# Columns and labels:
# [1] = test system: Raji (lymphoma), Hela (cervical) and PC-3 (prostate) cancer cell line; conditions: cited from earlier work
# HT-29 cell line [2] = experiment: Binary sequenced combination study (MTT, CI and dose-effect parameters); format: cell-based, human; conditions: single drug; for IC50: read-out: Dm (median effect dose)
# Experimental: (§1) Binary sequenced combinations of NH3 with curcumin and EGCG have been investigated in both ovarian and colorectal cancer models using four different cell lines.
# (§2) The method for determining single drug cytotoxicity and activity of drugs in sequenced combination was the same as described in our previous articles. […] The plates were then left to incubate under normal growth conditions for 72 h. […] Four hours after the addition of the MTT solution (50 µL per well of 1 mg/mL MTT solution), the purple formazan crystals produced from the reduction of MTT were dissolved in 150 µL DMSO and read with a iMarkTM Bio-Rad Microplate Reader Version 1.04.02.E. The IC50 values were obtained from the results of at least three independent experiments. Proteomic study was conducted following same procedure mentioned before in our published research article.
# A2780^cisR cell line [3] = experiment: as above; format: cell-based, human; conditions: single drug; for IC50: read-out: Dm (median effect dose)
# Experimental: as §1, §2
# A2780 cell line [4] = experiment: as above; format: cell-based, human; conditions: single drug; for IC50: read-out: Dm (median effect dose)
# Experimental: as §1, §2
# Caco-2 cell line = experiment: as above; format: cell-based, human; conditions: single drug; for IC50: read-out: Dm (median effect dose)
# Experimental: as §1, §2
# HT-29 cell line [5] = experiment: Proteomic study, protein expression after treatment with NH3 alone; format: cell-based, human
# Excerpt: (§3) The study has provided information on the underlying mechanism of antitumor activity of NH3 alone in different cell lines. Total of 19 (seven from A2780 cell line, nine from A2780^cisR cell line and three from HT-29 cell line) proteins have been identified from the present study that underwent significant changes in expression following treatment with NH3 alone. Change in folds of the respective proteins after treatment with NH3 alone is shown in Table 2 (A2780 cell line), Table 3 (A2780^cisR cell line) and Table 4 (HT-29 cell line).
# as §2
# A2780 cell line [6] = experiment: as above; format: cell-based, human
# Excerpt: as §3, §2
# A2780^cisR cell line [7] = format: cell-based, human
# Excerpt: as §3, §2
# [8] = test system: Swiss-albino adult male mice; experiment: Twenty days in vivo toxicity study; conditions: for Survival of mice till the end of the experiment: subcutaneous, twenty days study; for Creatinine / SGOT / SGPT: serum
# Experimental: Experimental animals: Thirty six Swiss-albino adult male mice (body weight range 20 ± 5 gm) were purchased from the Department of Pharmacy, Jahangirnagar University, Bangladesh. Mice were housed in a 12 h day night cycle (light on at 7 am and off at 7 pm) providing bench light of 350 lux, at 25 ± 2 °C temperature and 55 ± 10% humidity. Mice were reared in the cages (580 × 375 × 190 mm), supplied with commercially available food pellet [Rodent diet, ICDDRB, Bangladesh] and drinking water ad libitum. Body weight of each mouse was measured twice every day and other physical changes recorded.
# Animal sacrifice, blood and organs collection: Twenty four hours following the last treatment and test, the mice were kept in fasting overnight. Then, they were anaesthetized with intraperitoneal injection of sodium pentobarbital (35 mg/kbw) [Phenobarbital, Incepta Pharmaceuticals, Bangladesh] and sacrificed as shown in Table 9
# Blood was collected immediately, centrifuged at 1000 rpm, collected plasma and serum were preserved at –80 °C for biochemical study (SGPT, SGOT and Creatinine). Biochemical investigations were carried out in an auto analyzer (Photometer 5010 V5+, Robert Riely, Berlin, Germany) using Sigma Aldrich (Saint Louis, MO, USA) reagent kit. The mice model preliminary toxicity study was approved by the Biosafety, Biosecurity and Ethical Committee [Approval Number: BBEC-JU/M2019(12)1] of Jahangirnagar University, Savar, Dhaka, Bangladesh. Statistical analysis was conducted through SPSS using Satterthwaite’s method for equality of variances.
# Hela = experiment: MTT reduction assay, cytotoxicity; format: cell-based, human; conditions: Hela cell line
# Experimental: (§4) Dose response curves have been presented in Supplementary File (Figures S1–S5).
# as §2
# MCF-7 = experiment: MTT reduction assay, cytotoxicity; format: cell-based, human; conditions: MCF-7 cell line
# Experimental: as §4, §2
# A2780^cisR = experiment: MTT reduction assay, cytotoxicity; format: cell-based, human; conditions: A2780^cisR cell line
# Experimental: as §4, §2
# A2780^ZDO473R = experiment: MTT reduction assay, cytotoxicity; format: cell-based, human
# Experimental: as §4, §2
# A2780 = experiment: MTT reduction assay, cytotoxicity; format: cell-based, human; conditions: parent ovarian A2780 cell line
# Experimental: as §4, §2
structure (smiles),measurement,setting,value
Oc1cccc2cccnc12 [8-Hydroxyquinoline],Antitumor activity,[1],significant antitumor activity
"COc1cc(/C=C/C(=O)CC(=O)/C=C/c2ccc(O)c(OC)c2)ccc1O [Curcumin, curcumin]",IC50,HT-29 cell line [2]; Homo sapiens,16.6 µM
same,m (exponent defining the shape of the dose–effect curve),HT-29 cell line [2],1.25
same,IC50,"A2780^cisR cell line [3]; Homo sapiens, A2780cisR",16.7 µM
same,m (exponent defining the shape of the dose–effect curve),A2780^cisR cell line [3],1.56
same,IC50,A2780 cell line [4]; Homo sapiens,8.63 µM
same,m (exponent defining the shape of the dose–effect curve),A2780 cell line [4],1.25
same,IC50,Caco-2 cell line; Homo sapiens,21.9 µM
same,m (exponent defining the shape of the dose–effect curve),Caco-2 cell line,1.08
"O=C(O[C@@H]1Cc2c(O)cc(O)cc2O[C@@H]1c1cc(O)c(O)c(O)c1)c1cc(O)c(O)c(O)c1 [EGCG, epigallocatechin gallate]",m (exponent defining the shape of the dose–effect curve),HT-29 cell line [2],0.39
same,IC50,HT-29 cell line [2],3.67 µM
same,m (exponent defining the shape of the dose–effect curve),A2780^cisR cell line [3],0.93
same,IC50,A2780^cisR cell line [3],8.9 µM
same,m (exponent defining the shape of the dose–effect curve),A2780 cell line [4],0.94
same,IC50,A2780 cell line [4],10.3 µM
same,m (exponent defining the shape of the dose–effect curve),Caco-2 cell line,1.32
same,IC50,Caco-2 cell line,108 µM
"[O-]c1cccc2cccnc12.[O-]c1cccc2cccnc12.[Pd+2] [NH3, [Bis(1,8-quinolato)palladium (II)]]",Change in Expression: Nucleoside Diphosphate kinase B,HT-29 cell line [5]; spot Hn70,Downregulated
same,Fold Change: Nucleoside Diphosphate kinase B,"HT-29 cell line [5]; spot Hn70, Downregulated",2.14
same,Change in Expression: Annexin A1,HT-29 cell line [5]; spot Hn89,Downregulated
same,Fold Change: Annexin A1,"HT-29 cell line [5]; spot Hn89, Downregulated",1.85
same,Change in Expression: Histone H4,HT-29 cell line [5]; spot Hn119,Downregulated
same,Fold Change: Histone H4,"HT-29 cell line [5]; spot Hn119, Downregulated",1.91
same,"Change in Expression: Actin, cytoplasmic 1",A2780 cell line [6]; spot 6,Downregulated
same,"Fold change: Actin, cytoplasmic 1","A2780 cell line [6]; spot 6, Downregulated",4.8
same,Change in Expression: Vimentin,A2780 cell line [6]; spot 12,Downregulated
same,Fold Change: Vimentin,"A2780 cell line [6]; spot 12, Downregulated",1.63
same,"Change in Expression: 60 kDa heat shock protein, mitochondrial",A2780 cell line [6]; spot 13,Downregulated
same,"Fold Change: 60 kDa heat shock protein, mitochondrial","A2780 cell line [6]; spot 13, Downregulated",3.23
same,Change in Expression: Endoplasmin,A2780 cell line [6]; spot 18,Downregulated
same,Fold Change: Endoplasmin,"A2780 cell line [6]; spot 18, Downregulated",4.56
same,Change in Expression: 78 kDa glucose-regulated protein,A2780 cell line [6]; spot 45,Downregulated
same,Fold Change: 78 kDa glucose-regulated protein,"A2780 cell line [6]; spot 45, Downregulated",2.00
same,Change in Expression: Polyubiquitin-B,A2780 cell line [6]; spot 118,Downregulated
same,Fold Change: Polyubiquitin-B,"A2780 cell line [6]; spot 118, Downregulated",11.39
same,Change in Expression: Histone H3.3,A2780 cell line [6]; spot 155,Downregulated
same,Fold Change: Histone H3.3,"A2780 cell line [6]; spot 155, Downregulated",6.63
same,"Change in Expression: Actin, cytoplasmic 1",A2780^cisR cell line [7]; spot 1,Downregulated
same,"Fold change: Actin, cytoplasmic 1","A2780^cisR cell line [7]; spot 1, Downregulated",1.51
same,Change in Expression: 40S ribosomal protein SA,A2780^cisR cell line [7]; spot Cn9,Downregulated
same,Fold change: 40S ribosomal protein SA,"A2780^cisR cell line [7]; spot Cn9, Downregulated",2.98
same,Change in Expression: Heat shock cognate 71 kDa protein,A2780^cisR cell line [7]; spot Cn16,Downregulated
same,Fold change: Heat shock cognate 71 kDa protein,"A2780^cisR cell line [7]; spot Cn16, Downregulated",1.69
same,"Fold change: Keratin, type II cytoskeletal 1","A2780^cisR cell line [7]; spot Cn23, Upregulated",2.47
same,"Change in Expression: Elongation factor Tu, mitochondrial",A2780^cisR cell line [7]; spot Cn34,Downregulated
same,"Fold change: Elongation factor Tu, mitochondrial","A2780^cisR cell line [7]; spot Cn34, Downregulated",7.86
same,"Change in Expression: Citrate synthase, mitochondrial",A2780^cisR cell line [7]; spot Cn41,Downregulated
same,"Fold change: Citrate synthase, mitochondrial","A2780^cisR cell line [7]; spot Cn41, Downregulated",2.93
same,Change in Expression: Transitional endoplasmic reticulum ATPase,A2780^cisR cell line [7]; spot Cn56,Downregulated
same,Fold change: Transitional endoplasmic reticulum ATPase,"A2780^cisR cell line [7]; spot Cn56, Downregulated",3.87
same,Change in Expression: Cofilin-1,A2780^cisR cell line [7]; spot Cn69,Downregulated
same,Fold change: Cofilin-1,"A2780^cisR cell line [7]; spot Cn69, Downregulated",2.27
same,"Change in Expression: Actin, cytoplasmic 1",A2780^cisR cell line [7]; spot Cn79,Downregulated
same,"Fold change: Actin, cytoplasmic 1","A2780^cisR cell line [7]; spot Cn79, Downregulated",2.79
same,Change in mean body weight of mice,"[8]; both lower (2.5 mg/kg) and higher (5 mg/kg) doses, vs control groups",Decrease in body weight is also significant
same,Toxicity compared to cisplatin,"[8]; both lower (2.5 mg/kg) and higher doses (5 mg/kg), twenty days",less toxic
same,Survival of mice till the end of the experiment,[8]; higher dose 5 mg/kg,only one mouse died
same,Survival of mice till the end of the experiment,[8]; lower dose 2.5 mg/kg,All mice were alive
same,Creatinine,[8]; 2.5 mg/kg,0.9 ± 0.2 mg/dL
same,SGOT,[8]; 2.5 mg/kg,53 ± 4 IU/L
same,SGPT,[8]; 2.5 mg/kg,45 ± 3 IU/L
same,Creatinine,[8]; 5 mg/kg,0.7 ± 0.2 mg/dL
same,SGOT,[8]; 5 mg/kg,59 ± 5 IU/L
same,SGPT,[8]; 5 mg/kg,48 ± 4 IU/L
same,m (exponent defining the shape of the dose–effect curve),HT-29 cell line [2],2.06
same,IC50,HT-29 cell line [2],0.38 µM
same,m (exponent defining the shape of the dose–effect curve),A2780^cisR cell line [3],2.05
same,IC50,A2780^cisR cell line [3],0.23 µM
same,m (exponent defining the shape of the dose–effect curve),A2780 cell line [4],1.97
same,IC50,A2780 cell line [4],0.18 µM
same,m (exponent defining the shape of the dose–effect curve),Caco-2 cell line,1.96
same,IC50,Caco-2 cell line,0.56 µM
same,times greater cytotoxicity than cisplatin,Hela,around 10 times
same,times greater cytotoxicity than cisplatin,MCF-7,around 65 times
same,times greater activity than cisplatin,A2780^cisR,90 times
same,times greater activity than cisplatin,A2780^ZDO473R,80 times
same,times greater activity than cisplatin,A2780,10 times
